The values that follow come from patent publication US20070117770A1, “Human ribosomal DNA (rDNA) and ribosomal RNA (rRNA) nucleic acids and uses thereof” (Cylene Pharmaceuticals, Inc., priority 2005, published 2007).

What all share (assay): Protein kinase inhibition assay
Holding throughout (format): biochemical

One assay concerns the target CDK5/p25(h) (Homo sapiens, UniProt Q00535). The settings on record: read-out: percent residual activity of CDK5/p25(h). The protocol: (§1) Certain compounds were tested for activity in protein kinase inhibition assays. All substrates were dissolved and diluted to working stocks in de-ionized water, apart from histone H1 (10× working stock in 20 mM MOPS pH 7.0), PDKtide (10× working stock in 50 mM Tris pH 7.0) ATF2 (which is typically stored at a 20× working stock in 50 mM Tris pH 7.5, 150 mM NaCl, 0.1 mM EGTA, 0.03% Brij-35, 50% glycerol, 1 mM benzamidine, 0.2 mM PMSF and 0.1% R-mercaptoethanol), KKLNRTLSFAEPG (SEQ ID NO:203) and RRRLSFAEPG (SEQ ID NO:204) (50 mM HEPES pH 7.4) and GGEEEEYFELVKKKK (SEQ ID NO:205) (20 mM MOPS pH 7.0). All kinases were pre-diluted to a 10× working concentration prior to addition into the assay. The composition of the dilution buffer for each kinase is detailed below.
(§2) In a final reaction volume of 25 μl, CDK5/p25 (h) (5-10 mU) is incubated with 8 mM MOPS pH 7.0, 0.2 mM EDTA, 0.1 mg/ml histone H1, 10 mM MgAcetate and [y-33P-ATP] (specific activity approx. 500 cpm/pmol, concentration as required). The reaction is initiated by the addition of the MgATP mix. After incubation for 40 minutes at room temperature, the reaction is stopped by the addition of 5 μl of a 3% phosphoric acid solution. 10 μl of the reaction is then spotted onto a P30 filtermat and washed three times for 5 minutes in 75 mM phosphoric acid and once in methanol prior to drying and scintillation counting.

The target in another assay is Tie2(h) (Homo sapiens, UniProt Q02763). The settings on record: for remaining activity at 2.5 µM: read-out: percent residual activity of Tie2(h). The protocol: as §1
as §2, with “Tie2” for “CDK5/p25”, “EDTA, 0.5 mM MnCl2,” for “EDTA,”, “poly(Glu, Tyr) 4:1,” for “histone H1,”, “[gamma-33P-ATP]” for “[y-33P-ATP]”, “Filtermat A” for “P30 filtermat”

For another assay, the target named is CaMKIV(h) (Homo sapiens, UniProt Q16566). The settings on record: read-out: percent residual activity of CaMKIV(h). The procedure:
as §1
In a final reaction volume of 25 μl, CaMKIV (h) (5-10 mU) is incubated with 40 mM HEPES pH 7.4, 5 mM CaCl2, 30 μg/ml calmodulin, 30 μM KKLNRTLSVA (SEQ ID NO:212), 10 mM MgAcetate and [gamma-33P-ATP] (specific activity approx. 500 cpm/pmol, concentration as required). The reaction is initiated by the addition of the MgATP mix. After incubation for 40 minutes at room temperature, the reaction is stopped by the addition of 5 μl of a 3% phosphoric acid solution. […]

The target of the next assay is Yes(h) (Homo sapiens, UniProt P07947). The settings on record: read-out: percent residual activity of Yes(h). The protocol: as §1
as §2, with “Yes” for “CDK5/p25”, “poly(Glu, Tyr) 4:1,” for “histone H1,”, “[gamma-33P-ATP]” for “[y-33P-ATP]”, “Filtermat A” for “P30 filtermat”

In another assay the target is TAK1(h) (Homo sapiens, UniProt O43318). The settings on record: read-out: percent residual activity of TAK1(h). The procedure:
as §1
as §2, with “TAK1” for “CDK5/p25”, “2” for “0.1”, “casein,” for “histone H1,”, “[gamma-33P-ATP]” for “[y-33P-ATP]”

The target in the next assay is T1, MKK7β(h) (Homo sapiens, UniProt O14733).
T1 sequence (O14733 1-419): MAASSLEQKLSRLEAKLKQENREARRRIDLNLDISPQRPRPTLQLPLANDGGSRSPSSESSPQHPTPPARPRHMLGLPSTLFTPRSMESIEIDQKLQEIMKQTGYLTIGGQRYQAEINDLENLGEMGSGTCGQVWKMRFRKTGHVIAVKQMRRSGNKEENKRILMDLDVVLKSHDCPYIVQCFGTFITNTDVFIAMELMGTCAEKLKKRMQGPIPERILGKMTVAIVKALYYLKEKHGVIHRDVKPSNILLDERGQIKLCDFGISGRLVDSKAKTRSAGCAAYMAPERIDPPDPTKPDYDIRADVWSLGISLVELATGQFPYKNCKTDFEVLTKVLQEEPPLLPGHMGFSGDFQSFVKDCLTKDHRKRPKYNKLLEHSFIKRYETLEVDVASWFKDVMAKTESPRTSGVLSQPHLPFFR
The settings on record: for remaining activity at 2.5 µM: read-out: percent residual activity of MKK7β(h). The protocol:
as §1
The reaction is initiated by the addition of the MgATP. After incubation for 40 minutes at room temperature, 5 μl of this incubation mix is used to initiate a JNK1α1 (h) assay, which is exactly as described on page 11 of this book except that ATF2 is replaced with 250 μM peptide.

Structures are written as SMILES.

Tie2(h), sequence (Q02763 23-1124): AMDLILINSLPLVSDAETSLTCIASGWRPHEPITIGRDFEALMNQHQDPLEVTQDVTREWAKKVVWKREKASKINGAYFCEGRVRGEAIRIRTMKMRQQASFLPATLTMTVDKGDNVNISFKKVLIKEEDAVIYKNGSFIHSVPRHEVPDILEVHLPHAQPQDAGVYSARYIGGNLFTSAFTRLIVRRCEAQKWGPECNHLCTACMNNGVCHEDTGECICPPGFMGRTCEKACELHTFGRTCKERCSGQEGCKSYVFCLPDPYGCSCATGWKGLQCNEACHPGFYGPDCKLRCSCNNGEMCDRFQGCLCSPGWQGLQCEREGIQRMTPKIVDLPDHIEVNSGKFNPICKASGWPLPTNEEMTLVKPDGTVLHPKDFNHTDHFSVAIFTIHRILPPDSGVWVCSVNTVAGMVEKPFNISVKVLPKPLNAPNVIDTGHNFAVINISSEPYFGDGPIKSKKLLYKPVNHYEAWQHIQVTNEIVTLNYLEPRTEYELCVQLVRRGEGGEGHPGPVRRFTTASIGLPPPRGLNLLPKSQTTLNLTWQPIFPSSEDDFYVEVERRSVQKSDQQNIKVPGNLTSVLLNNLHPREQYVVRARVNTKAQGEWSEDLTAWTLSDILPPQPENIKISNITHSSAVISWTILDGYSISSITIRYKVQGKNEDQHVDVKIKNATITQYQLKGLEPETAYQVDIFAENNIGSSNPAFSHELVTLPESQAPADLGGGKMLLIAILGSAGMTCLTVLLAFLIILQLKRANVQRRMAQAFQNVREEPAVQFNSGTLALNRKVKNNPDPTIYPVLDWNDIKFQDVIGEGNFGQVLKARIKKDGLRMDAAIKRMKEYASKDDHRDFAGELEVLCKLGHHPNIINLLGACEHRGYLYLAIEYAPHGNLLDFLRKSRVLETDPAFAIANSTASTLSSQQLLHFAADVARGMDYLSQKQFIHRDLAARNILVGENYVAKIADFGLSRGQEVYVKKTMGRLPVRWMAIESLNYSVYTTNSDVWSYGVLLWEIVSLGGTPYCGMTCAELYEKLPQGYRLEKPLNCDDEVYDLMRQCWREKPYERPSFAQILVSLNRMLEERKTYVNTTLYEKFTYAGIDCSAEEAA
CDK5/p25(h), sequence (Q00535 whole entry): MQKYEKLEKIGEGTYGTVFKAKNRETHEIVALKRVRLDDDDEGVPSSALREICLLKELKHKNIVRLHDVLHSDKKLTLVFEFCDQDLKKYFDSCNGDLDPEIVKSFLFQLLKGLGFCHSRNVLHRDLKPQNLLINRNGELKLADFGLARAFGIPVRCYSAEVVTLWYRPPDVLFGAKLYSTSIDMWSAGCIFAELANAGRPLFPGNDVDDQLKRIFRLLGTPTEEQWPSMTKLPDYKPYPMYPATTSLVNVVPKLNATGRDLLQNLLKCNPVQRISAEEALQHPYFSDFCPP
CDK5/p25(h), sequence (Q15078 99-307 partner limits assumed): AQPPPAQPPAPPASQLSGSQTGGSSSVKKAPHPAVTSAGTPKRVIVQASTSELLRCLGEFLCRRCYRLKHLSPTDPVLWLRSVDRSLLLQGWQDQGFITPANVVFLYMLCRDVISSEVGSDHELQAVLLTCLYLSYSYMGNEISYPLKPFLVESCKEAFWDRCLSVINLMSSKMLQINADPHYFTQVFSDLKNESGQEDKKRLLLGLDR
Yes(h), sequence (P07947 whole entry): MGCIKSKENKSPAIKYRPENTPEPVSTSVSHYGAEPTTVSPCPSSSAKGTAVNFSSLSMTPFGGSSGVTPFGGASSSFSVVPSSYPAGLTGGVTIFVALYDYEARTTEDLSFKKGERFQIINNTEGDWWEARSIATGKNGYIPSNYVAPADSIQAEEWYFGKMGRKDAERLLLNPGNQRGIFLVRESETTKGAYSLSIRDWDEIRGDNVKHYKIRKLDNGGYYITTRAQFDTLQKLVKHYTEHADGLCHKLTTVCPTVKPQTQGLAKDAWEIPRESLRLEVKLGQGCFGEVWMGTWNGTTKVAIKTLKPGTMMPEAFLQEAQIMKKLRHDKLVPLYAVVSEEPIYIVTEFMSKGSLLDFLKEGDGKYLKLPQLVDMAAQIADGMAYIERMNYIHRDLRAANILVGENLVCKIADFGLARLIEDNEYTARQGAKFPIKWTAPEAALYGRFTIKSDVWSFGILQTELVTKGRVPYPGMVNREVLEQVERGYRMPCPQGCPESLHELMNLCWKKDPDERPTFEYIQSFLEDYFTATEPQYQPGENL
TAK1(h), sequence (O43318 1-303 limits assumed): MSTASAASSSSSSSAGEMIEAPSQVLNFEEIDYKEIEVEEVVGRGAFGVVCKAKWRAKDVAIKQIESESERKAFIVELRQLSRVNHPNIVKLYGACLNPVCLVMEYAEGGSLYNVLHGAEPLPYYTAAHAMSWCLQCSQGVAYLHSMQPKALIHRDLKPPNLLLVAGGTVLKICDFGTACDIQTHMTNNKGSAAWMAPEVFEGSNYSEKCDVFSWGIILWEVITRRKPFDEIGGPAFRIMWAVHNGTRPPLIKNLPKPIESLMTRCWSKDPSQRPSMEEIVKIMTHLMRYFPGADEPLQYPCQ

Turning to `CN1CCCC1CCNC(=O)c1cn2c3c(c(N4CCC(c5cnccn5)C4)c(F)cc3c1=O)Oc1cc3ccccc3cc1-2` (centres unmarked) [Compound A-1], the remaining activity at 2.5 µM at CDK5/p25(h) stood at 77%; at Tie2(h), 13%; on CaMKIV(h), 124%; at Yes(h) it was 81%; on TAK1(h), 98%; on MKK7β(h) it was 111%. Further, the inhibition (commonly the percentage by which the read-out fell short of the control) at 2.5 µM against Tie2(h) was over 80%.
With `CC(=O)N1CCN(c2ccc3c(=O)c(C(=O)NCCN4CCCC4)c4n(C)c5ccccc5n4c3n2)CC1` [Compound B-1], the remaining activity at 2.5 µM was found to be 99% on CDK5/p25(h); 115% at Tie2(h); 122% at CaMKIV(h); 96% on Yes(h); 95% at TAK1(h); 1% on MKK7β(h). In addition, the “inhibition of MKK7B” value against MKK7β(h) (2.5 μM) is listed as “inhibits MKK7B”.
